Test results from patent publication US8476037B2, “Method for screening of antiviral agents” (priority 2010, dated 2013).

Target: M2(1-49) channel forming segment of the M2 protein (Influenza A virus, UniProt P0DOF5)
Type: cell-based

Chain of M2(1-49) channel forming segment of the M2 protein (P0DOF5 1-49 limits assumed): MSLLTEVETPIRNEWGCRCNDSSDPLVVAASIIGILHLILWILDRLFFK

What does the source list for `Cl.NC12CC3CC(CC(C3)C1)C2` [amantadine, 1-aminoadamantane hydrochloride]?
expression of M2(1-49) protein in SPP culture: the M2(1-49) protein was expressed; rescue of expression of M2(1-49) ([…], addition of amantadine): rescued
